Assay: Plasma levels and pharmacokinetics of intravenous ITPP

O=P1(O)OC2C3OP(=O)(O)OP(=O)(O)OC3C3OP(=O)(O)OP(=O)(O)OC3C2OP(=O)(O)O1 (centres unmarked) [ITPP, Myo-inositol trispyrophosphate]
ITPP plasma level, Concentration (Cohort 6, Patient 18, Day 5, Hour 10): 60.6 µg/mL | ITPP plasma level, Concentration (Cohort 6, Patient 19, Day 1, Hour 0): 0 µg/mL | ITPP plasma level, Concentration (Cohort 6, Patient 19, Day 1, Hour 3): 392 µg/mL | ITPP plasma level, Concentration (Cohort 6, Patient 19, Day 1, Hour 6): 294 µg/mL | ITPP plasma level, Concentration (Cohort 6, Patient 19, Day 1, Hour 8.5): 219 µg/mL | ITPP plasma level, Concentration (Cohort 6, Patient 19, Day 1, Hour 9): 185 µg/mL | ITPP plasma level, Concentration (Cohort 6, Patient 19, Day 1, Hour 10): 154 µg/mL | ITPP plasma level, Concentration (Cohort 6, Patient 19, Day 5, Hour 0): 0 µg/mL | ITPP plasma level, Concentration (Cohort 6, Patient 19, Day 5, Hour 3): 287 µg/mL | ITPP plasma level, Concentration (Cohort 6, Patient 19, Day 5, Hour 6): 329 µg/mL | ITPP plasma level, Concentration (Cohort 6, Patient 19, Day 5, Hour 8.5): 265 µg/mL | ITPP plasma level, Concentration (Cohort 6, Patient 19, Day 5, Hour 9): 244 µg/mL | ITPP plasma level, Concentration (Cohort 6, Patient 19, Day 5, Hour 10): 216 µg/mL | ITPP plasma level, Concentration (Cohort 6, Patient 20, Day 1, Hour 0): 0 µg/mL | ITPP plasma level, Concentration (Cohort 6, Patient 20, Day 1, Hour 3): 279 µg/mL | ITPP plasma level, Concentration (Cohort 6, Patient 20, Day 1, Hour 6): 307 µg/mL | ITPP plasma level, Concentration (Cohort 6, Patient 20, Day 1, Hour 8.5): 282 µg/mL | ITPP plasma level, Concentration (Cohort 6, Patient 20, Day 1, Hour 9): 396 µg/mL | ITPP plasma level, Concentration (Cohort 6, Patient 20, Day 1, Hour 10): 396 µg/mL | ITPP plasma level, Concentration (Cohort 6, Patient 20, Day 5, Hour 0): 0 µg/mL | ITPP plasma level, Concentration (Cohort 6, Patient 20, Day 5, Hour 3): 411 µg/mL | ITPP plasma level, Concentration (Cohort 6, Patient 20, Day 5, Hour 6): 595 µg/mL | ITPP plasma level, Concentration (Cohort 6, Patient 20, Day 5, Hour 8.5): 466 µg/mL | ITPP plasma level, Concentration (Cohort 6, Patient 20, Day 5, Hour 9): 301 µg/mL | ITPP plasma level, Concentration (Cohort 6, Patient 20, Day 5, Hour 10): 279 µg/mL | ITPP plasma level, Concentration (Cohort 6, Patient 21, Day 1, Hour 0): 0 µg/mL | ITPP plasma level, Concentration (Cohort 6, Patient 21, Day 1, Hour 3): 249 µg/mL | ITPP plasma level, Concentration (Cohort 6, Patient 21, Day 1, Hour 6): 325 µg/mL | ITPP plasma level, Concentration (Cohort 6, Patient 21, Day 1, Hour 8.5): 281 µg/mL | ITPP plasma level, Concentration (Cohort 6, Patient 21, Day 1, Hour 9): 241 µg/mL | ITPP plasma level, Concentration (Cohort 6, Patient 21, Day 1, Hour 10): 172 µg/mL | ITPP plasma level, Concentration (Cohort 6, Patient 21, Day 5, Hour 0): 0 µg/mL | ITPP plasma level, Concentration (Cohort 6, Patient 21, Day 5, Hour 3): 350 µg/mL | ITPP plasma level, Concentration (Cohort 6, Patient 21, Day 5, Hour 6): 204 µg/mL | ITPP plasma level, Concentration (Cohort 6, Patient 21, Day 5, Hour 8.5): 217 µg/mL | ITPP plasma level, Concentration (Cohort 6, Patient 21, Day 5, Hour 9): 184 µg/mL | ITPP plasma level, Concentration (Cohort 6, Patient 21, Day 5, Hour 10): 125 µg/mL | ITPP plasma level, Concentration (Cohort 7, Patient 22, Day 1, Hour 0): 0 µg/mL | ITPP plasma level, Concentration (Cohort 7, Patient 22, Day 1, Hour 3): 280 µg/mL | ITPP plasma level, Concentration (Cohort 7, Patient 22, Day 1, Hour 6): 384 µg/mL | ITPP plasma level, Concentration (Cohort 7, Patient 22, Day 1, Hour 8.5): 281 µg/mL | ITPP plasma level, Concentration (Cohort 7, Patient 22, Day 1, Hour 9): 215 µg/mL | ITPP plasma level, Concentration (Cohort 7, Patient 22, Day 1, Hour 10): 152 µg/mL | ITPP plasma level, Concentration (Cohort 7, Patient 22, Day 5, Hour 0): 0 µg/mL | ITPP plasma level, Concentration (Cohort 7, Patient 22, Day 5, Hour 3): 257 µg/mL | ITPP plasma level, Concentration (Cohort 7, Patient 22, Day 5, Hour 6): 351 µg/mL | ITPP plasma level, Concentration (Cohort 7, Patient 22, Day 5, Hour 8.5): 319 µg/mL | ITPP plasma level, Concentration (Cohort 7, Patient 22, Day 5, Hour 9): 302 µg/mL | ITPP plasma level, Concentration (Cohort 7, Patient 22, Day 5, Hour 10): 203 µg/mL | ITPP plasma level, Concentration (Cohort 7, Patient 23, Day 1, Hour 0): 0 µg/mL | ITPP plasma level, Concentration (Cohort 7, Patient 23, Day 1, Hour 3): 286 µg/mL | ITPP plasma level, Concentration (Cohort 7, Patient 23, Day 1, Hour 6): 329 µg/mL | ITPP plasma level, Concentration (Cohort 7, Patient 23, Day 1, Hour 8.5): 316 µg/mL | ITPP plasma level, Concentration (Cohort 7, Patient 23, Day 1, Hour 9): 178 µg/mL | ITPP plasma level, Concentration (Cohort 7, Patient 23, Day 1, Hour 10): 119 µg/mL | ITPP plasma level, Concentration (Cohort 7, Patient 23, Day 5, Hour 0): 0 µg/mL | ITPP plasma level, Concentration (Cohort 7, Patient 23, Day 5, Hour 3): 282 µg/mL | ITPP plasma level, Concentration (Cohort 7, Patient 23, Day 5, Hour 6): 478 µg/mL | ITPP plasma level, Concentration (Cohort 7, Patient 23, Day 5, Hour 8.5): 418 µg/mL | ITPP plasma level, Concentration (Cohort 7, Patient 23, Day 5, Hour 9): 188 µg/mL | ITPP plasma level, Concentration (Cohort 7, Patient 23, Day 5, Hour 10): 185 µg/mL | ITPP plasma level, Concentration (Cohort 7, Patient 24, Day 1, Hour 0): 0 µg/mL | ITPP plasma level, Concentration (Cohort 7, Patient 24, Day 1, Hour 3): 278 µg/mL | ITPP plasma level, Concentration (Cohort 7, Patient 24, Day 1, Hour 6): 230 µg/mL | ITPP plasma level, Concentration (Cohort 7, Patient 24, Day 1, Hour 8.5): 226 µg/mL | ITPP plasma level, Concentration (Cohort 7, Patient 24, Day 1, Hour 9): 152 µg/mL | ITPP plasma level, Concentration (Cohort 7, Patient 24, Day 1, Hour 10): 103 µg/mL | ITPP plasma level, Concentration (Cohort 7, Patient 24, Day 2, Hour 0): 0 µg/mL | ITPP plasma level, Concentration (Cohort 7, Patient 24, Day 2, Hour 9): 143 µg/mL | ITPP plasma level, Concentration (Cohort 7, Patient 24, Day 3, Hour 0): 0 µg/mL | ITPP plasma level, Concentration (Cohort 7, Patient 24, Day 3, Hour 9): 237 µg/mL | ITPP plasma level, Concentration (Cohort 7, Patient 24, Day 4, Hour 0): 0 µg/mL | ITPP plasma level, Concentration (Cohort 7, Patient 24, Day 4, Hour 9): 199 µg/mL | ITPP plasma level, Concentration (Cohort 7, Patient 24, Day 5, Hour 0): 0 µg/mL | ITPP plasma level, Concentration (Cohort 7, Patient 24, Day 5, Hour 3): 299 µg/mL | ITPP plasma level, Concentration (Cohort 7, Patient 24, Day 5, Hour 6): 358 µg/mL | ITPP plasma level, Concentration (Cohort 7, Patient 24, Day 5, Hour 8.5): 245 µg/mL | ITPP plasma level, Concentration (Cohort 7, Patient 24, Day 5, Hour 9): 200 µg/mL | ITPP plasma level, Concentration (Cohort 7, Patient 24, Day 5, Hour 10): 141 µg/mL | ITPP plasma level, Concentration (Cohort 7, Patient 24, Day 6, Hour 0): 0 µg/mL | ITPP plasma level, Concentration (Cohort 7, Patient 24, Day 6, Hour 9): 200 µg/mL | ITPP plasma level, Concentration (Cohort 7, Patient 24, Day 7, Hour 0): 0 µg/mL | ITPP plasma level, Concentration (Cohort 7, Patient 24, Day 7, Hour 9): 208 µg/mL | ITPP plasma level, Concentration (Cohort 7, Patient 24, Day 8, Hour 0): 0 µg/mL | ITPP plasma level, Concentration (Cohort 7, Patient 24, Day 8, Hour 9): 181 µg/mL | ITPP plasma level, Concentration (Cohort 7, Patient 24, Day 9, Hour 0): 0 µg/mL | ITPP plasma level, Concentration (Cohort 7, Patient 24, Day 9, Hour 3): 247 µg/mL | ITPP plasma level, Concentration (Cohort 7, Patient 24, Day 9, Hour 6): 345 µg/mL | ITPP plasma level, Concentration (Cohort 7, Patient 24, Day 9, Hour 8.5): 217 µg/mL | ITPP plasma level, Concentration (Cohort 7, Patient 24, Day 9, Hour 9): 199 µg/mL | ITPP plasma level, Concentration (Cohort 7, Patient 24, Day 9, Hour 10): 143 µg/mL | ITPP plasma level, Concentration (Cohort 8, Patient 25, Day 1, Hour 0): 0 µg/mL | ITPP plasma level, Concentration (Cohort 8, Patient 25, Day 1, Hour 3): 388 µg/mL | ITPP plasma level, Concentration (Cohort 8, Patient 25, Day 1, Hour 6): 497 µg/mL | ITPP plasma level, Concentration (Cohort 8, Patient 25, Day 1, Hour 8.5): 505 µg/mL | ITPP plasma level, Concentration (Cohort 8, Patient 25, Day 1, Hour 9): 317 µg/mL | ITPP plasma level, Concentration (Cohort 8, Patient 25, Day 1, Hour 10): 194 µg/mL | ITPP plasma level, Concentration (Cohort 8, Patient 25, Day 5, Hour 0): 0 µg/mL | ITPP plasma level, Concentration (Cohort 8, Patient 25, Day 5, Hour 3): 354 µg/mL | ITPP plasma level, Concentration (Cohort 8, Patient 25, Day 5, Hour 6): 495 µg/mL | AUC (cohort 1, 1866 mg/m2): 350.7 µg·h/mL | AUMC (cohort 1, 1866 mg/m2): 1994.7 h2*mg/L | CL (cohort 1, 1866 mg/m2): 4.8 L/h | Clast (cohort 1, 1866 mg/m2): 19200 ng/mL | Cmax (cohort 1, 1866 mg/m2): 47200 ng/mL | Cmin (cohort 1, 1866 mg/m2): 0 ng/mL | Elimination rate λz (cohort 1, 1866 mg/m2): 0.5 h⁻¹ | Half life/T0.5 (cohort 1, 1866 mg/m2): 1.3 h | MRT (cohort 1, 1866 mg/m2): 1.7 h | Tlast (cohort 1, 1866 mg/m2): 10.0 h

Source: paper PMC8217170, “Phase Ib dose-escalation study of the hypoxia-modifier Myo-inositol trispyrophosphate in patients with hepatopancreatobiliary tumors” (Nature Communications, 2021)
